Assay [1] has as its target T1, Retinoic acid receptor RXR-gamma (Mus musculus, UniProt P28705).
T1 sequence (P28705 whole entry): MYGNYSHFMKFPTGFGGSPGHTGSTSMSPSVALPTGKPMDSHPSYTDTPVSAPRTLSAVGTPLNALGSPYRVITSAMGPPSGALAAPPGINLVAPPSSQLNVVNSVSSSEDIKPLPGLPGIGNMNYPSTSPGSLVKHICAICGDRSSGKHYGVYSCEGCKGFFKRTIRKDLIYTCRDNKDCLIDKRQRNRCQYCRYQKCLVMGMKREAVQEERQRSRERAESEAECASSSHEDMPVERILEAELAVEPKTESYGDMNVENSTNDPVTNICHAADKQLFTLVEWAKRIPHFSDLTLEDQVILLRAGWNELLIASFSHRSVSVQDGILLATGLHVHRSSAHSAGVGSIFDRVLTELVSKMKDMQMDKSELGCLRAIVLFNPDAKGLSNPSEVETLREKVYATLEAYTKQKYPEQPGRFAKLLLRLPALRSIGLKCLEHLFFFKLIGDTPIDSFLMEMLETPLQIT
Briefly: Effective potency in transcriptional activation assay in CV-1 cells expressing Retinoid X receptor RXR gamma. The class given is cell-based.

Assay [2] has as its target T2, Retinoic acid receptor alpha (Homo sapiens, UniProt P10276).
T2 sequence (P10276 whole entry): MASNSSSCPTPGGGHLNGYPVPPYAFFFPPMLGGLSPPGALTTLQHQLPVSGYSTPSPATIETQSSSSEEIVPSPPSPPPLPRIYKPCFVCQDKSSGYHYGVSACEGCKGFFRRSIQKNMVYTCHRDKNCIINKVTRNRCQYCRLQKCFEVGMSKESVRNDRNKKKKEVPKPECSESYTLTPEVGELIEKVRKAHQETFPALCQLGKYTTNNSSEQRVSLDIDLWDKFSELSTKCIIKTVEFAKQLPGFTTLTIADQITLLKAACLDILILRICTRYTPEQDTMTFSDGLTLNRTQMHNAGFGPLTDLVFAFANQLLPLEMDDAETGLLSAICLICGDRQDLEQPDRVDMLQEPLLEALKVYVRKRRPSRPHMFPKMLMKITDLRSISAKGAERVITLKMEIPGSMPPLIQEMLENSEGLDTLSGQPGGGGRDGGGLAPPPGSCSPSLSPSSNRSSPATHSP
Briefly: Effective potency in transcriptional activation assay in CV-1 cells expressing retinoic acid receptor RAR alpha; Not active. The assay is classed as functional, cell-based.

The target in assay [3] is T3, Retinoic acid receptor RXR-alpha (Homo sapiens, UniProt P19793).
T3 sequence (P19793 whole entry): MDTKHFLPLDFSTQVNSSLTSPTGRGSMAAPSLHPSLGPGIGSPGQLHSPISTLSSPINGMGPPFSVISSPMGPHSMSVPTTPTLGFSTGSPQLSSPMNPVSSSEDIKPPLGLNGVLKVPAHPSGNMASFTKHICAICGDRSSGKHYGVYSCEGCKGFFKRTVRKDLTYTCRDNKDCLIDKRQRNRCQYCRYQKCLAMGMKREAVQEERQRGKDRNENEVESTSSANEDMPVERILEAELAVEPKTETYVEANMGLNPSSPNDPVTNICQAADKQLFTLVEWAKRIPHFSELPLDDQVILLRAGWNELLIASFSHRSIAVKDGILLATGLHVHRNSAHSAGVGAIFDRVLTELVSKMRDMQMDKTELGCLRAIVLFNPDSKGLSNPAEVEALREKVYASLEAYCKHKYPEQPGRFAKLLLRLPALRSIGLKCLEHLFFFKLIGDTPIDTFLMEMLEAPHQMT
In words: Effective potency in transcriptional activation assay in CV-1 cells expressing Retinoid X receptor RXR alpha. The class given is functional, cell-based.

Assay [4] addresses T4, Retinoic acid receptor RXR-beta (Mus musculus) (UniProt P28704).
T4 sequence (whole entry): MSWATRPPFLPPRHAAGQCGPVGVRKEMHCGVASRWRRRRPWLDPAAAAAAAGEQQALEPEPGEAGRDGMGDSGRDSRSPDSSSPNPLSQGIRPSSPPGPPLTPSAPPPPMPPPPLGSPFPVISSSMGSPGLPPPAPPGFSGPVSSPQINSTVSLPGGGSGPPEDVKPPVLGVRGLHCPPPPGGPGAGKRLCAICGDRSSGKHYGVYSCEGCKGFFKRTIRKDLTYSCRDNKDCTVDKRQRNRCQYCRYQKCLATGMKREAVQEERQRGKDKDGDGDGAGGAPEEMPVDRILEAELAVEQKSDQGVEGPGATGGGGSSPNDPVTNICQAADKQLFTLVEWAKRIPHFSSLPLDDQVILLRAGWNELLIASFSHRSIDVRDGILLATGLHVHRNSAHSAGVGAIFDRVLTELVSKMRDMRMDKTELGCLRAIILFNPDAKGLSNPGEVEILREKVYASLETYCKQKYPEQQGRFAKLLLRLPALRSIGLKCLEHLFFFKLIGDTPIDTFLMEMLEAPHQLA
In words: Percent efficacy for Retinoid X receptor RXR beta in CV-1 cell transcriptional activation assay. The assay is classed as functional, cell-based.

Assay [5] deals with T5, Retinoic acid receptor beta (Homo sapiens, UniProt P10826).
T5 sequence (P10826 whole entry): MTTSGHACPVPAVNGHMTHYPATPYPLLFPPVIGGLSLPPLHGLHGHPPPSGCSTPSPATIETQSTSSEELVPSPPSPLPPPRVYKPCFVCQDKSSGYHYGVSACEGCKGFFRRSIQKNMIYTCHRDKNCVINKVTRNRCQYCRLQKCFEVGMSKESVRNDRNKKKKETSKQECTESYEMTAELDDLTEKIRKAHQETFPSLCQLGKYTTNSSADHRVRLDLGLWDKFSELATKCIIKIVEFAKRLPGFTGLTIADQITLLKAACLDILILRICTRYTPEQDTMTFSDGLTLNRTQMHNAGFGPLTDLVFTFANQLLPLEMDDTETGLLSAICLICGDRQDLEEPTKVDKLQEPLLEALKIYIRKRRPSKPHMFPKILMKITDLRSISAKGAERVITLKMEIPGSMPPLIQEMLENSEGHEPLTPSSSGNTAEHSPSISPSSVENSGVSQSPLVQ
The note with it: cv-1.

In assay [6] the target is T3, Retinoic acid receptor RXR-alpha. Briefly: Inhibition of [3H]9-cis-RA binding to Retinoid X receptor RXR alpha.
Assay [7] has as its target T6, Retinoic acid receptor RXR-beta (Mus musculus, UniProt P28704).
T6 sequence (P28704 whole entry): T4 sequence (whole entry)
In words: Inhibition of [3H]9-cis-RA binding to Retinoid X receptor RXR beta.

Assay [8] concerns the target T1, Retinoic acid receptor RXR-gamma. Briefly: Inhibition of [3H]9-cis-RA binding to Retinoid X receptor RXR gamma.
The target in assay [9] is T7, Retinoic acid receptor RXR-gamma (Mus musculus) (UniProt P28705).
T7 sequence (whole entry): T1 sequence (P28705 whole entry)
In words: Percent efficacy for Retinoid X receptor RXR gamma in CV-1 cell transcriptional activation assay. The class given is cell-based.

For assay [10], the target named is T6, Retinoic acid receptor RXR-beta. Briefly: Effective potency in transcriptional activation assay in CV-1 cells expressing Retinoid X receptor RXR beta. The assay is classed as functional, cell-based.
Assay [11] addresses T2, Retinoic acid receptor alpha. In words: Inhibition of [3H]ATRA binding to retinoic acid receptor RAR alpha.
The target of assay [12] is T5, Retinoic acid receptor beta. Briefly: Inhibition of [3H]ATRA binding to retinoic acid receptor RAR beta.
In assay [13] the target is T8, Retinoic acid receptor gamma (Homo sapiens, UniProt P13631).
T8 sequence (P13631 whole entry): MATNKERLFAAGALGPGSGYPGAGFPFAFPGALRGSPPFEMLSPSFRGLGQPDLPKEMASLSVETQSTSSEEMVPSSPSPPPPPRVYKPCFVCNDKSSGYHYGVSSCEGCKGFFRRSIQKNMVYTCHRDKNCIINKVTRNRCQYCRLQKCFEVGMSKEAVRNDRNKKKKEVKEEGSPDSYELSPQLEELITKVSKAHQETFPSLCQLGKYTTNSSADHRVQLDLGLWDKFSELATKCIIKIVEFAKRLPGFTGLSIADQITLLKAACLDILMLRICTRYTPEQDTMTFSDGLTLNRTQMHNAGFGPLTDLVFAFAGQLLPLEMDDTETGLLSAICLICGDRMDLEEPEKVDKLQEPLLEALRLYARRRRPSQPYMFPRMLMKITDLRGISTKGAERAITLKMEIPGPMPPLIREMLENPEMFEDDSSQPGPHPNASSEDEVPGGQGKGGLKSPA
Particulars: cv-1; call rule not given here.

The target of assay [14] is T8, Retinoic acid receptor gamma. Briefly: Inhibition of [3H]-ATRA binding to Retinoic acid receptor RAR gamma.
The target is the same in assay [15]. Briefly: Effective potency in transcriptional activation assay in CV-1 cells expressing retinoic acid receptor RAR gamma. The class given is functional, cell-based.
The target in assay [16] is T5, Retinoic acid receptor beta. Briefly: Effective potency in transcriptional activation assay in CV-1 cells expressing retinoic acid receptor RAR beta. The class given is functional, cell-based.

For the molecule `CC(/C=C/[C@]1(C)CCCC1c1ccc2c(c1)C(C)(C)CCC2(C)C)=C\C(=O)O` (single isomer, unassigned), the EC50 was 44 nM in [1]; “Not Active” in [2]; 62 nM in [3]; “Not Active” in [5]; 62 nM in assay [10]; “Not Active” in assay [13]. Moreover, the figures for the Efficacy in assay [4] and in assay [9] were 50% and 38%, respectively. Besides, the Ki in assay [6] was 4 nM; in assay [7], 10 nM; in [8] it was 7 nM; in assay [11] it was more than 1000 nM; in [12] it was more than 1000 nM; in [14], more than 1000 nM.

As to `CC(/C=C/[C@]12CCC[C@@]1(c1ccc3c(c1)C(C)(C)CCC3(C)C)C2)=C\C(=O)O`, the EC50 is 3 nM in assay [1]; “Not Active” in assay [2]; 4 nM in assay [3]; “Not Active” in assay [5]; 3 nM in [10]; 209 nM in [15]. The Efficacy stood at 92% in assay [4] and 77% in assay [9]. Besides, the Ki is 3 nM in assay [6]; 10 nM in assay [7]; 5 nM in assay [8]; more than 1000 nM in assay [11]; more than 1000 nM in assay [12]; more than 1000 nM in assay [14].

Take `CC(/C=C/[C@@H]1CCC[C@@H]1c1ccc2c(c1)C(C)(C)CCC2(C)C)=C\C(=O)O`: the EC50 in [1] was 25 nM; in [2] it was “Not Active”; in assay [3], 31 nM; in assay [5], “Not Active”; in assay [10], 29 nM; in [13], “Not Active”. The results for the Efficacy in assay [4] and in [9] were 101% and 58%, respectively. Further, the Ki in assay [6] was 15 nM; in [7] it was 11 nM; in assay [8] it was 26 nM; in assay [11] it was more than 1000 nM; in assay [12], more than 1000 nM; in [14], more than 1000 nM.

Regarding `CC(/C=C/C1=C(c2cc3c(cc2C)C(C)(C)CCC3(C)C)CCC1)=C\C(=O)O`, the EC50 in assay [1] was 128 nM; in assay [2] it was “Not Active”; in assay [3], 95 nM; in assay [5], “Not Active”; in [10], 191 nM; in assay [13], “Not Active”. In addition, the Efficacy was 44% in assay [4] and 42% in assay [9]. Also, the Ki is 5 nM in assay [6]; 25 nM in [7]; 22 nM in assay [8]; more than 1000 nM in [11]; more than 1000 nM in [12]; more than 1000 nM in [14].

As for `C=C1C[C@H](c2ccc3c(c2)C(C)(C)CCC3(C)C)[C@@H](/C=C/C(C)=C/C(=O)O)C1`, the EC50 is 212 nM in assay [1]; “Not Active” in [2]; 189 nM in assay [3]; 559 nM in [16]; 222 nM in assay [10]; 355 nM in [15]. Besides, the Efficacy was found to be 169% in assay [4] and 99% in [9]. Also, the Ki is 38 nM in [6]; 252 nM in [7]; 54 nM in assay [8]; more than 1000 nM in assay [11]; more than 1000 nM in assay [12]; more than 1000 nM in assay [14].

On to `CC(/C=C/C1=C(c2ccc3c(c2)C(C)(C)CCC3(C)C)CCC1)=C\C(=O)O`, for which the EC50 is 40 nM in assay [1]; “Not Active” in assay [2]; 53 nM in assay [3]; 339 nM in assay [16]; 42 nM in assay [10]; 1150 nM in assay [15]. Also, the Efficacy in assay [4] was found to be 70%; in [9] it was 62%. Moreover, the Ki is 20 nM in [6]; 36 nM in [7]; 58 nM in [8]; more than 1000 nM in assay [11]; more than 1000 nM in [12]; more than 1000 nM in assay [14].

In the case of `CC(/C=C/[C@@]1(C)CCCC1c1ccc2c(c1)C(C)(C)CCC2(C)C)=C\C(=O)O` (single isomer, unassigned), the 50% effective concentration (EC50) in assay [1] is 16 nM; in assay [2] it was “Not Active”; in [3], 7 nM; in assay [16], 809 nM; in assay [10], 14 nM; in assay [15], 1780 nM. Also, the figures for the Efficacy in assay [4] and in assay [9] were 110% and 72%, respectively. The Ki in assay [6] is 4 nM; in assay [7], 10 nM; in assay [8] it was 7 nM; in assay [11], more than 1000 nM; in assay [12], more than 1000 nM; in [14], more than 1000 nM.

In turn, `C=C(c1ccc(C(=O)O)cc1)c1cc2c(cc1C)C(C)(C)CCC2(C)C` registered an Efficacy in assay [9] of 85%.

One may read the EC50 as the midpoint of the concentration-response curve. One may read the Ki as a dissociation constant, usually derived from enzyme kinetics or from competition with a known ligand.
